Among the data in ChEMBL document CHEMBL1151450, “Differential activities of newer antifungal agents against Candida albicans and Candida parapsilosis biofilms” (2008) are MIC, Activity and inhibition values, retold here.

The term inhibition denotes the share of the control response that was lost under treatment.

Assay [1] has as its system Candida albicans. The experiment in a line: Antifungal activity against Candida albicans M61 grown as planktonic cell assessed as minimum drug level required to decrease turbidity by 50% after 24 hrs by CLSI M27-A2 method. The assay is classed as functional. Particulars: M61, 24 h.
Assay [2] deals with Candida albicans. In words: Antifungal activity against Candida albicans GDH2346 grown as planktonic cell assessed as minimum drug level required to decrease turbidity by 50% after 24 hrs by CLSI M27-A2 method. The class given is functional. The settings on record: GDH2346, 24 h.
Assay [3] deals with Candida parapsilosis. The experiment in a line: Antifungal activity against Candida parapsilosis PA/71 grown as planktonic cell assessed as minimum drug level required to decrease turbidity by 50% after 24 hrs by CLSI M27-A2 method. The assay is classed as functional. The settings on record: Lodderomyces parapsilosis, PA/71, 24 h.
Assay [4] has as its system Candida albicans. The experiment in a line: Antifungal activity against Candida albicans M61 grown as biofilm assessed as 50% reduction in metabolic activity of biofilm at 64 mg/liter after 24 hrs by XTT assay. The class given is functional, organism-based.
Assay [5] deals with Candida albicans. In words: Antifungal activity against Candida albicans GDH2346 grown as biofilm assessed as 50% reduction in metabolic activity of biofilm at 64 mg/liter after 24 hrs by XTT assay. The assay is classed as functional, organism-based. For orientation: Tetrazolium assays rely on reduction of a dye to a coloured formazan, in cell work by metabolically active cells.

Assay [6] has as its system Candida parapsilosis. In words: Antifungal activity against Candida parapsilosis PA/71 grown as biofilm assessed as 50% reduction in metabolic activity of biofilm at 64 mg/liter after 24 hrs by XTT assay. The class given is functional, organism-based.
For assay [7], the system named is Candida parapsilosis. The experiment in a line: Antifungal activity against Candida parapsilosis PA/71 grown as biofilm assessed as 50% reduction in metabolic activity of biofilm after 24 hrs by XTT assay. The settings on record: Lodderomyces parapsilosis, PA/71, 24 h. The class given is functional.
The subject of assay [8] is Candida albicans. In words: Antifungal activity against Candida albicans M61 grown as biofilm assessed as 50% reduction in metabolic activity of biofilm at 0.06 mg/liter after 24 hrs by XTT assay. The class given is functional, organism-based.
For assay [9], the system named is Candida albicans. The experiment in a line: Antifungal activity against Candida albicans GDH2346 grown as biofilm assessed as 50% reduction in metabolic activity of biofilm at 0.03 mg/liter after 24 hrs by XTT assay. The class given is functional, organism-based.
Assay [10] relates to Candida albicans. In words: Antifungal activity against Candida albicans M61 grown as biofilm at >2 mg/liter after 24 hrs by XTT assay. The class given is functional, organism-based.
Assay [11] concerns Candida albicans. In words: Antifungal activity against Candida albicans GDH2346 grown as biofilm >2 mg/liter after 24 hrs by XTT assay. The assay is classed as functional, organism-based.
Assay [12] relates to Candida albicans. In words: Antifungal activity against Candida albicans M61 grown as biofilm assessed as maximum inhibition of biofilm metabolic activity at 2 mg/liter after 24 hrs by XTT assay relative to control. The class given is functional. Particulars: M61, 24 h.
Assay [13] has as its system Candida albicans. In words: Antifungal activity against Candida albicans GDH2346 grown as biofilm assessed as maximum inhibition of biofilm metabolic activity at 2 mg/liter after 24 hrs by XTT assay relative to control. The class given is functional. The settings on record: GDH2346, 24 h.
The subject of assay [14] is Candida parapsilosis. In words: Antifungal activity against Candida parapsilosis PA/71 grown as biofilm >2 mg/liter after 24 hrs by XTT assay. The class given is functional, organism-based.
The subject of assay [15] is Candida albicans. In words: Antifungal activity against Candida albicans M61 grown as biofilm assessed as 50% reduction in metabolic activity of biofilm after 24 hrs by XTT assay. The class given is functional. Particulars: M61, 24 h.
Assay [16] relates to Candida albicans. In words: Antifungal activity against Candida albicans GDH2346 grown as biofilm assessed as 50% reduction in metabolic activity of biofilm after 24 hrs by XTT assay. The settings on record: GDH2346, 24 h. The assay is classed as functional.
Assay [17] concerns Candida albicans. The experiment in a line: Antifungal activity against Candida albicans GDH2346 grown as biofilm assessed as maximum inhibition of biofilm metabolic activity at 8 mg/liter after 24 hrs by XTT assay relative to control. The assay is classed as functional. Particulars: GDH2346, 24 h.
The subject of assay [18] is Candida albicans. In words: Antifungal activity against Candida albicans M61 grown as biofilm assessed as maximum inhibition of biofilm metabolic activity at 0.5 mg/liter after 24 hrs by XTT assay relative to control. The assay is classed as functional. The settings on record: M61, 24 h.
The subject of assay [19] is Candida albicans. In words: Antifungal activity against Candida albicans M61 grown as biofilm assessed as 50% reduction in metabolic activity of biofilm at 256 mg/liter after 24 hrs by XTT assay. The assay is classed as functional, organism-based.
Assay [20] deals with Candida albicans. The experiment in a line: Antifungal activity against Candida albicans GDH2346 grown as biofilm assessed as 50% reduction in metabolic activity of biofilm at 256 mg/liter after 24 hrs by XTT assay. The class given is functional, organism-based.
Assay [21] has as its system Candida parapsilosis. In words: Antifungal activity against Candida parapsilosis PA/71 grown as biofilm assessed as 50% reduction in metabolic activity of biofilm at 256 mg/liter after 24 hrs by XTT assay. The assay is classed as functional, organism-based.

Values after ≈ are worked out from the molar mass of the structure shown. Active and inactive are the calls of the source. No cut-off for these calls is given here. *1 amine or outer side, *2 acyl side, *3 side chain or, on linkers, in order; H or OH if unused. Where a SMILES comes first, the peptide text is derived from it. Bridges are numbered along the chain shown (N, C = ends). [ ]: non-standard residue; d: D form. The star is where a group is joined. pTerphenylCO(4''-OnC5H11) = CCCCCOc1ccc(-c2ccc(-c3ccc(C(=O)*)cc3)cc2)cc1; Orn(4R-OH,5R-OH) = O=C([C@H](C[C@@H](O)[C@@H](O)N[*:3])N[*:1])[*:2]; hTyr(3S-OH,4S-OH) = N[C@H](C(=O)O)[C@H](O)[C@@H](O)c1ccc(O)cc1; Pro(3S-OH,4S-Me) = C[C@H]1CN[C@H](C(=O)O)[C@H]1O; Hyp = O=C(O)[C@@H]1C[C@@H](O)CN1

Regarding `CC[C@@H]([C@H](C)O)n1ncn(-c2ccc(N3CCN(c4ccc(OC[C@@H]5CO[C@@](Cn6cncn6)(c6ccc(F)cc6F)C5)cc4)CC3)cc2)c1=O` [POSACONAZOLE], the MIC was not above 0.001 µg/mL in assay [1], not above 0.001 µg/mL in assay [2], 0.01 µg/mL (≈ 0.0143 µM) in assay [3] and more than 256 µg/mL in assay [7]. In addition, the result in assay [4], in assay [5] and in [6] was inactive.
`CC[C@H](C)C[C@H](C)CCCCCCCCC(=O)N[C@H]1C[C@@H](O)[C@@H](NCCN)NC(=O)[C@@H]2[C@@H](O)CCN2C(=O)[C@H]([C@H](O)CCN)NC(=O)[C@H]([C@H](O)[C@@H](O)c2ccc(O)cc2)NC(=O)[C@@H]2C[C@@H](O)CN2C(=O)[C@H]([C@@H](C)O)NC1=O` [CASPOFUNGIN]: the MIC was determined as 0.06 µg/mL (≈ 0.0549 µM) in assay [1], 0.03 µg/mL (≈ 0.0274 µM) in [2], 0.06 µg/mL (≈ 0.0549 µM) in [3] and 1 µg/mL (≈ 0.915 µM) in assay [7]. In addition, the outcome in assay [8], in assay [9], in assay [10], in assay [11] and in assay [14] was Active. The inhibition at 2 µg/mL in assay [12] and in assay [13] was 30% each time.
With `CCCCCOc1ccc(-c2ccc(-c3ccc(C(=O)N[C@H]4C[C@@H](O)[C@@H](O)NC(=O)[C@@H]5[C@@H](O)[C@@H](C)CN5C(=O)[C@H]([C@@H](C)O)NC(=O)[C@H]([C@H](O)[C@@H](O)c5ccc(O)cc5)NC(=O)[C@@H]5C[C@@H](O)CN5C(=O)[C@H]([C@@H](C)O)NC4=O)cc3)cc2)cc1` [ANIDULAFUNGIN] ({pTerphenylCO(4''-OnC5H11)}-[Orn(4R-OH,5R-OH)]T[Hyp][hTyr(3S-OH,4S-OH)]T[Pro(3S-OH,4S-Me)]; lactam 1-C), the MIC in assay [1] was 0.003 µg/mL (≈ 0.00263 µM); in [2] it was 0.003 µg/mL (≈ 0.00263 µM); in [3] it was 0.125 µg/mL (≈ 0.11 µM); in assay [15], 0.5 µg/mL (≈ 0.438 µM); in assay [16], 0.12 µg/mL (≈ 0.105 µM); in assay [7] it was 2 µg/mL (≈ 1.75 µM). For the same compound, the inhibition at 8 µg/mL in [17] was determined as 40%. Besides, in [18], the inhibition at 0.5 µg/mL was found to be 40%.
As to `C[C@@H](c1ncncc1F)[C@](O)(Cn1cncn1)c1ccc(F)cc1F` [VORICONAZOLE], the MIC in [1] came to 0.01 µg/mL (≈ 0.0286 µM); in [2] it was 4 µg/mL (≈ 11.5 µM); in assay [3] it was 0.03 µg/mL (≈ 0.0859 µM); in assay [7] it was 256 µg/mL (≈ 733 µM). The result in assay [19], in assay [20] and in [21] was inactive.
